Reference: patent US20210045385A1, “PYRIDAZINONE-SUBSTITUTED KETOXIMES AS HERBICIDES” (FMC Corporation, priority 2018, published 2021)

Legend:
Assay type in all cases: in vivo
[1] = system: duck salad (Heteranthera limosa); assay: Test D flooded paddy test, visual plant response rating; conditions: 250 g ai/ha, scale 0 to 100 (0 no effect, 100 complete control), 13 to 15 d
How it was run: (§1)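 Greenhouse paddy assay scored on a 0–100 visual scale after 13 to 15 d, where 100 means complete control and a dash marks no result; dosing was into 3 cm floodwater over 2-leaf plants.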

[2] = system: barnyardgrass (Echinochloa crus-galli); assay: as above; conditions: 250 g ai/ha, scale 0 to 100 (0 no effect, 100 complete control), 13 to 15 d
How it was run: as §1

rice (Oryza sativa) = assay: as above; conditions: 250 g ai/ha, scale 0 to 100 (0 no effect, 100 complete control), 13 to 15 d
How it was run: as §1

[3] = system: sedge umbrella (small-flower umbrella sedge, Cyperus difformis); assay: as above; conditions: 250 g ai/ha, scale 0 to 100 (0 no effect, 100 complete control), 13 to 15 d
How it was run: as §1

[4] = system: blackgrass (Alopecurus myosuroides); assay: Test C postemergence, visual plant response rating
How it was run: (§2)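 Seeds sown in a loam–sand blend got a directed preemergence soil spray; postemergence plants (2–10 cm, one- to two-leaf stage) were sprayed with compound in a non-phytotoxic solvent plus surfactant. Injury was scored visually against untreated controls after about 10 d in a greenhouse on a 0–100 scale (100 = complete control).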

[5] = system: Italian ryegrass (Lolium mutiflorum); assay: Test C postemergence, visual plant response rating
How it was run: as §2

[6] = system: galium (catchweed bedstraw, Galium aparine); assay: Test C postemergence, visual plant response rating
How it was run: as §2

kochia (Bassia scoparia) [7] = assay: Test C postemergence, visual plant response rating
How it was run: as §2

corn (Zea mays) = assay: Test C postemergence, visual plant response rating
How it was run: as §2

[8] = system: barnyardgrass (Echinochloa crus-galli); assay: Test C postemergence, visual plant response rating
How it was run: as §2

[9] = system: pigweed (Amaranthus retroflexus); assay: Test C postemergence, visual plant response rating
How it was run: as §2

[10] = system: ragweed (common ragweed, Ambrosia artemisiifolia); assay: Test C postemergence, visual plant response rating
How it was run: as §2

[11] = system: foxtail, giant (giant foxtail, Setaria faberi); assay: Test C postemergence, visual plant response rating
How it was run: as §2

[12] = system: wheat (Triticum aestivum); assay: Test C postemergence, visual plant response rating
How it was run: as §2

[13] = system: Italian ryegrass (Lolium mutiflorum); assay: Test C preemergence, visual plant response rating; conditions: Test C, 0 is no effect, 100 is complete control
How it was run: as §2

kochia (Bassia scoparia) [14] = assay: Test C preemergence, visual plant response rating; conditions: Test C, 0 is no effect, 100 is complete control
How it was run: as §2

[15] = system: barnyardgrass (Echinochloa crus-galli); assay: Test C preemergence, visual plant response rating; conditions: Test C, 0 is no effect, 100 is complete control
How it was run: as §2

[16] = system: pigweed (Amaranthus retroflexus); assay: Test C preemergence, visual plant response rating; conditions: Test C, 0 is no effect, 100 is complete control
How it was run: as §2

[17] = system: ragweed (common ragweed, Ambrosia artemisiifolia); assay: Test C preemergence, visual plant response rating; conditions: Test C, 0 is no effect, 100 is complete control
How it was run: as §2

[18] = system: foxtail, giant (giant foxtail, Setaria faberi); assay: Test C preemergence, visual plant response rating; conditions: Test C, 0 is no effect, 100 is complete control
How it was run: as §2

[19] = Test C, postemergence, 125 g ai/ha

Structure (SMILES)	Plant response rating, Ducksalad (Flood) [1]	Plant response rating, Barnyardgrass (Flood) [2]	Plant response rating, Rice (Flood) (rice (Oryza sativa))	Plant response rating, Sedge, Umbrella (Flood) [3]	Blackgrass plant response rating (0 to 100 scale) ([4]; Postemergence, 31 g ai/ha)	Blackgrass plant response rating (0 to 100 scale) [4, 19]	Ryegrass, Italian plant response rating (0 to 100 scale) ([5]; Postemergence, 31 g ai/ha)	Ryegrass, Italian plant response rating (0 to 100 scale) [5, 19]	Galium plant response rating (0 to 100 scale) ([6]; Postemergence, 31 g ai/ha)	Galium plant response rating (0 to 100 scale) [6, 19]	Kochia plant response rating (0 to 100 scale) (kochia (Bassia scoparia) [7]; Postemergence, 31 g ai/ha)	Kochia plant response rating (0 to 100 scale) (kochia (Bassia scoparia) [7]; [19])	Corn plant response rating (0 to 100 scale) (corn (Zea mays); Postemergence, 31 g ai/ha)	Corn plant response rating (0 to 100 scale) (corn (Zea mays); [19])	Barnyardgrass plant response rating (0 to 100 scale) ([8]; Postemergence, 31 g ai/ha)	Barnyardgrass plant response rating (0 to 100 scale) [8, 19]	Pigweed plant response rating (0 to 100 scale) ([9]; Postemergence, 31 g ai/ha)	Pigweed plant response rating (0 to 100 scale) [9, 19]	Ragweed plant response rating (0 to 100 scale) ([10]; Postemergence, 31 g ai/ha)	Ragweed plant response rating (0 to 100 scale) [10, 19]	further results
CCO/N=C(\c1c(O)c(Cl)nn(C)c1=O)c1ccc(F)c2ccccc12 [Compound 212]	60	20	0	65	0	0	10	80	90	100	50	50	0	0	50	70	50	90	100	90	Foxtail, Giant plant response rating (0 to 100 scale) ([11]; Postemergence, 31 g ai/ha): 50; Foxtail, Giant plant response rating (0 to 100 scale) [11, 19]: 80; Wheat plant response rating (0 to 100 scale) ([12]; Postemergence, 31 g ai/ha): 0; Wheat plant response rating (0 to 100 scale) [12, 19]: 0; Ryegrass, Italian plant response rating (0 to 100 scale) ([13]; 31 g ai/ha): 0; Ryegrass, Italian plant response rating (0 to 100 scale) ([13]; 125 g ai/ha): 30; Kochia plant response rating (0 to 100 scale) (kochia (Bassia scoparia) [14]; 31 g ai/ha): 0; Kochia plant response rating (0 to 100 scale) (kochia (Bassia scoparia) [14]; 125 g ai/ha): 20; Barnyardgrass plant response rating (0 to 100 scale) ([15]; 31 g ai/ha): 40; Barnyardgrass plant response rating (0 to 100 scale) ([15]; 125 g ai/ha): 80; Pigweed plant response rating (0 to 100 scale) ([16]; 31 g ai/ha): 10; Pigweed plant response rating (0 to 100 scale) ([16]; 125 g ai/ha): 100; Ragweed plant response rating (0 to 100 scale) ([17]; 31 g ai/ha): 10; Ragweed plant response rating (0 to 100 scale) ([17]; 125 g ai/ha): 100; Foxtail, Giant plant response rating (0 to 100 scale) ([18]; 31 g ai/ha): 80; Foxtail, Giant plant response rating (0 to 100 scale) ([18]; 125 g ai/ha): 100
C#CCON=C(c1cc(Cl)cc(Cl)c1Cl)c1c(O)c(C)nn(C)c1=O [Compound 296]	0	0	0	0	0	70	80	100	100	100	30	50	0	20	20	70	80	90	100	100	Foxtail, Giant plant response rating (0 to 100 scale) ([11]; Postemergence, 31 g ai/ha): 30; Foxtail, Giant plant response rating (0 to 100 scale) [11, 19]: 90; Wheat plant response rating (0 to 100 scale) ([12]; Postemergence, 31 g ai/ha): 70; Wheat plant response rating (0 to 100 scale) [12, 19]: 100; Ryegrass, Italian plant response rating (0 to 100 scale) ([13]; 31 g ai/ha): 90; Ryegrass, Italian plant response rating (0 to 100 scale) ([13]; 125 g ai/ha): 100; Kochia plant response rating (0 to 100 scale) (kochia (Bassia scoparia) [14]; 31 g ai/ha): 0; Kochia plant response rating (0 to 100 scale) (kochia (Bassia scoparia) [14]; 125 g ai/ha): 20; Barnyardgrass plant response rating (0 to 100 scale) ([15]; 31 g ai/ha): 60; Barnyardgrass plant response rating (0 to 100 scale) ([15]; 125 g ai/ha): 100; Pigweed plant response rating (0 to 100 scale) ([16]; 31 g ai/ha): 40; Pigweed plant response rating (0 to 100 scale) ([16]; 125 g ai/ha): 100; Ragweed plant response rating (0 to 100 scale) ([17]; 31 g ai/ha): 30; Ragweed plant response rating (0 to 100 scale) ([17]; 125 g ai/ha): 100; Foxtail, Giant plant response rating (0 to 100 scale) ([18]; 31 g ai/ha): 80; Foxtail, Giant plant response rating (0 to 100 scale) ([18]; 125 g ai/ha): 100
C#CCO/N=C(/c1c(O)c(C)nn(C)c1=O)c1cccc2cc(Cl)ccc12 [Compound 242]	98	95	85	100	80	90	40	90	80	100	40	50	0	20	80	90	90	100	50	90	Foxtail, Giant plant response rating (0 to 100 scale) ([11]; Postemergence, 31 g ai/ha): 70; Foxtail, Giant plant response rating (0 to 100 scale) [11, 19]: 80; Wheat plant response rating (0 to 100 scale) ([12]; Postemergence, 31 g ai/ha): 0; Wheat plant response rating (0 to 100 scale) [12, 19]: 60; Ryegrass, Italian plant response rating (0 to 100 scale) ([13]; 31 g ai/ha): 10; Ryegrass, Italian plant response rating (0 to 100 scale) ([13]; 125 g ai/ha): 90; Kochia plant response rating (0 to 100 scale) (kochia (Bassia scoparia) [14]; 31 g ai/ha): 30; Kochia plant response rating (0 to 100 scale) (kochia (Bassia scoparia) [14]; 125 g ai/ha): 50; Barnyardgrass plant response rating (0 to 100 scale) ([15]; 31 g ai/ha): 60; Barnyardgrass plant response rating (0 to 100 scale) ([15]; 125 g ai/ha): 90; Pigweed plant response rating (0 to 100 scale) ([16]; 31 g ai/ha): 100; Pigweed plant response rating (0 to 100 scale) ([16]; 125 g ai/ha): 100; Ragweed plant response rating (0 to 100 scale) ([17]; 31 g ai/ha): 80; Ragweed plant response rating (0 to 100 scale) ([17]; 125 g ai/ha): 90; Foxtail, Giant plant response rating (0 to 100 scale) ([18]; 31 g ai/ha): 80; Foxtail, Giant plant response rating (0 to 100 scale) ([18]; 125 g ai/ha): 100
